Laboratory results as given in patent publication US20080081826A1, “SYSTEM FOR EFFECTING WEIGHT LOSS” (priority 2006, published 2008).

Tests used:
[1] = system: gastric and pancreatic lipase; conditions: literature; cited from earlier work
[2] = Clinical weight loss studies (historical) in overweight or obese patients, 12 or 24 weeks; assay type: in vivo, human patients; conditions: no meal replacement
Experimental: To conduct the studies, patients who were diagnosed as overweight or obese were chosen for clinical trials to assess weight loss as a function of prescribed meal replacements or a weight loss agent (sibutramine). Co-administration of both a weight loss agent and meal replacement was also tested.
All patients received lifestyle modification training of either a moderate (data Groups 1-9, 11, and 12) or intensive (data Group 10) character which included a patient's participation in record keeping, professional consultation, and exercise in addition to the dietary protocol. Patients placed on a “Moderate” lifestyle management program were given a diet sheet with instructions for a defined intake of daily calories ranging from 800-1600 kcal, or a 600 kcal deficit diet, with or without exercise and routine visits with the Primary Care Provider to reinforce diet and behavior modification, but relying primarily on patient self-monitoring. Patients placed on an “Intensive” lifestyle management program were given a diet sheet with a defined intake of daily calories ranging from 800-1600 kcal, or a 600 kcal deficit diet, with meals recorded in a food diary, and were provided with ongoing diet counseling and caloric adjustment according to weight loss “Intensive” patients were also given defined minimal weekly requirements for exercise and instructed to record their activities in an exercise diary that was then collected and reviewed by the Primary Care Provider. The Intensive program also included routine visits throughout the course of the study with a Dietitian and the Primary Care Provider in order to reinforce diet and behavior modification.
Patients in some groups (see Table 2, data Groups 2, 11, and 12) utilized meal replacement formulations. These individuals were given a diet sheet with a defined intake of daily calories ranging from 800-1600 kcal, or a 600 kcal deficit diet, with a meal replacement formulation taken once or twice daily instead of a food meal, and routine visits with a Primary Care Provider to reinforce diet and behavior modification, but relying primarily on patient self-monitoring.
The remainder of the patients (see Table 2, data Groups 3-11) also received daily doses of sibutramine at 10 mg/day (data Groups 3-7 and 11) or 15 mg/day (data Groups 8, 9, and 12). Individuals in data Groups 11 and 12 were given a diet sheet with a defined intake of daily calories ranging from 800-1600 kcal, or a 600 kcal deficit diet, with a meal replacement formulation (SlimFast®) taken once or twice daily instead of a food meal where applicable (see Table 2), and routine visits with a Primary Care Provider to reinforce diet and behavior modification, but relying primarily on patient self-monitoring. Patients in data Group 10 were placed on a 10 mg/day sibutramine and “Intensive” life style management regimen with no meal replacement.
In each of the studies, patients were monitored for weight loss over a 12- or 24-week period. The data groups ranged in size from 17 to 592 patients, and were placed on either a conventional diet with moderate lifestyle management program (data Group 1), or a diet including a meal replacement component including substitution of either one or two meals per day with a meal replacement formulation, as part of a moderate lifestyle management (data Group 2), or a conventional diet plus one daily dose of sibutramine (10 mg) with a moderate or intensive lifestyle management (data Groups 3-7 and 10), a conventional diet plus one daily dose of sibutramine (15 mg) with moderate lifestyle management (data Groups 8 and 9), and finally, a diet with one or two meal replacements (SlimFast®) plus one daily dose of sibutramine (10 mg) and moderate lifestyle management (data Group 11) or a diet with one or two meal replacements (SlimFast®) plus one daily dose of sibutramine (10 mg for 12 weeks followed by 15 mg for 12 weeks) (data Group 12).
All subjects received moderate or intensive lifestyle management training. […]

[3] = data Groups 8 and 9: 15 mg sibutramine + moderate lifestyle management, 24 weeks

SMILES	fraction of the fat contained in a meal whose absorption is blocked [1]	Mean Weight Change (kg) (LOCF*) ([2]; data Group 3: sibutramine 10 mg/day, moderate lifestyle management, 12 weeks)	weight loss (lower end of range, sibutramine only) ([2]; data Group 3 as worded in text: 10 mg sibutramine/day + moderate lifestyle management, latest observation to week 12) [kg]	Mean Weight Change (kg) (LOCF*) ([2]; data Group 4: sibutramine 10 mg/day, moderate lifestyle management, 12 weeks)	mean weight loss ([2]; data Group 5: 10 mg/day sibutramine + moderate lifestyle management, latest observation to week 12) [kg]	Mean Weight Change (kg) (LOCF*) ([2]; data Group 5: sibutramine 10 mg/day, moderate lifestyle management, 12 weeks)	Mean Weight Change (kg) (LOCF*) ([2]; data Group 6: sibutramine 10 mg/day, moderate lifestyle management, 12 weeks)	Mean Weight Change (kg) (LOCF*) ([2]; data Group 7: sibutramine 10 mg/day, moderate lifestyle management, 12 weeks)	Mean Weight Change (kg) (LOCF*) ([2]; data Group 8: sibutramine 15 mg/day, moderate lifestyle management, 24 weeks)	Mean Weight Change (kg) (LOCF*) ([2]; data Group 9: sibutramine 15 mg/day, moderate lifestyle management, 24 weeks)	weight loss (upper end of range, sibutramine only) ([2]; data Group 10: 10 mg sibutramine/day + intensive lifestyle management, latest observation to week 12) [kg]	Mean Weight Change (kg) (LOCF*) ([2]; data Group 10: sibutramine 10 mg/day, intensive lifestyle management, 12 weeks)	overall average weight loss of all groups ([2]; data Groups 3-7: 10 mg/day sibutramine, moderate lifestyle management, 12 weeks) [kg]	average weight loss [2, 3] [kg]	improvement of average weight loss by the higher 15 mg dose [2, 3]
CCCCCCCCCCC[C@H](C[C@H]1OC(=O)[C@H]1CCCCCC)OC(=O)[C@@H](CC(C)C)NC=O [orlistat, (2S,3S,5S)-5-[(S)-2-formamido-4-methylvaleryloxy]-2-hexyl-3-hydroxyhexadecanoic acid lactone]	about one third	–	–	–	–	–	–	–	–	–	–	–	–	–	–
CC(C)CC(N(C)C)C1(c2ccc(Cl)cc2)CCC1 (stereo not drawn) [sibutramine, N,N-dimethyl-1-[1-(4-chlorophenyl)cyclobutyl]-3-methylbutylamine]	–	-3.9	3.7	-6.2	3.7	-3.7	-5	-4.2	-6.4	-5.6	8.4	-8.4	4.6	6.0	approximately 25%
